Assay [1] deals with T1, 5-hydroxytryptamine receptor 2C (Homo sapiens, UniProt P28335).
T1 sequence (P28335 whole entry): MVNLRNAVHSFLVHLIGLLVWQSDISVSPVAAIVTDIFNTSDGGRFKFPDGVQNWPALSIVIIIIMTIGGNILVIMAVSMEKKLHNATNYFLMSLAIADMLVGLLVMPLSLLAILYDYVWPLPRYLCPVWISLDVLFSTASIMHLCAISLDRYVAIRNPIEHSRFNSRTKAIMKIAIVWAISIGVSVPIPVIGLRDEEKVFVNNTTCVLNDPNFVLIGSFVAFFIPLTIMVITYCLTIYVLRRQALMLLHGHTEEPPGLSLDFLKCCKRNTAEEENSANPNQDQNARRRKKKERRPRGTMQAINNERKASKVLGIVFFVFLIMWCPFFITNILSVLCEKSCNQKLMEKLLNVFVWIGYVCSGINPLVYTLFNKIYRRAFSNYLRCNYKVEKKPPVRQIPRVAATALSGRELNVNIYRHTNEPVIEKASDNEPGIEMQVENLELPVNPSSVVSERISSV

A further assay concerns the target Mu-type opioid receptor (Homo sapiens, UniProt P35372).
For assay [2], the target named is Delta-type opioid receptor (Homo sapiens, UniProt P41143).
The target in assay [3] is T2, Alpha-1A adrenergic receptor (Homo sapiens, UniProt P35348).
T2 sequence (P35348 whole entry): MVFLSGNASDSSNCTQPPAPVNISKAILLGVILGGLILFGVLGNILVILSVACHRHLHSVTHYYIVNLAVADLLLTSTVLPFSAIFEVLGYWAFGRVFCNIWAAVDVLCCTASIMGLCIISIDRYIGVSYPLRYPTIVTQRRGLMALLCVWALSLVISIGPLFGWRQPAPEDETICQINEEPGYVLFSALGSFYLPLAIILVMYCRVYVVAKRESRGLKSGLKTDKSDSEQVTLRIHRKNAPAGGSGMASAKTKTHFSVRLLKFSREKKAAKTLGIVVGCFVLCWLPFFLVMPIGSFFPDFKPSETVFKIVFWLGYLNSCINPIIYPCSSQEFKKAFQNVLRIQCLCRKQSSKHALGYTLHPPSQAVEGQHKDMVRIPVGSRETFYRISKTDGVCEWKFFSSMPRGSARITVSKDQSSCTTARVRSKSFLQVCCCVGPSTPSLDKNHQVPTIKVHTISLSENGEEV
Format: functional, cell-based.

Another assay deals with T3, Endothelin-1 receptor (Homo sapiens, UniProt P25101).
T3 sequence (P25101 whole entry): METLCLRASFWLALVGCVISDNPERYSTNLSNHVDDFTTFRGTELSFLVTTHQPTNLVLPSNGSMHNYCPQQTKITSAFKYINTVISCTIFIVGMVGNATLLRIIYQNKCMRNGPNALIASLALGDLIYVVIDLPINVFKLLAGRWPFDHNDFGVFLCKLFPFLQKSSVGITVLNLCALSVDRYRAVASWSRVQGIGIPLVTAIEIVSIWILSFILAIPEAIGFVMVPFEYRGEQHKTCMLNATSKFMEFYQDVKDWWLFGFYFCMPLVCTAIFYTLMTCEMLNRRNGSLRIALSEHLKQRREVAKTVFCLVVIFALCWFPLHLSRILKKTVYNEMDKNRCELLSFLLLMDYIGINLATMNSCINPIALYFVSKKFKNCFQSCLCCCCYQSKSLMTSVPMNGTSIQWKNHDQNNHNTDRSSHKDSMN

In the next assay the target is Histamine H3 receptor (Homo sapiens, UniProt Q9Y5N1).
Assay [4] addresses T4, Muscarinic acetylcholine receptor M2 (Homo sapiens, UniProt P08172).
T4 sequence (P08172 whole entry): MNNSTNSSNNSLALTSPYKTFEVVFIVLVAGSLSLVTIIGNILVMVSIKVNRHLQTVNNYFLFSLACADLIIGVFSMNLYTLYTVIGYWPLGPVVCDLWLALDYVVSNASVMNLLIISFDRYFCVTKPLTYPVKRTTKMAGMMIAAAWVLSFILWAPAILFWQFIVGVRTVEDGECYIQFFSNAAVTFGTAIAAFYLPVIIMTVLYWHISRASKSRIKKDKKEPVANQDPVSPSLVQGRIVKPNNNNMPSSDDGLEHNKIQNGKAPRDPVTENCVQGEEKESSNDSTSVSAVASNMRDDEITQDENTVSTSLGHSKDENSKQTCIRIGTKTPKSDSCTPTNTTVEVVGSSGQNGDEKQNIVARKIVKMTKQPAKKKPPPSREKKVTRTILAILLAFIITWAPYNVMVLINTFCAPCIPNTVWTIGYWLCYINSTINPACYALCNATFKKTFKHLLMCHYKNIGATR
Format: functional, cell-based.

A further assay deals with Histamine H2 receptor (Homo sapiens, UniProt P25021). Format: functional, cell-based.
In assay [5] the target is Sodium-dependent noradrenaline transporter (Homo sapiens, UniProt P23975).
Another assay has as its target T5, B2 bradykinin receptor (Homo sapiens, UniProt P30411).
T5 sequence (P30411 whole entry): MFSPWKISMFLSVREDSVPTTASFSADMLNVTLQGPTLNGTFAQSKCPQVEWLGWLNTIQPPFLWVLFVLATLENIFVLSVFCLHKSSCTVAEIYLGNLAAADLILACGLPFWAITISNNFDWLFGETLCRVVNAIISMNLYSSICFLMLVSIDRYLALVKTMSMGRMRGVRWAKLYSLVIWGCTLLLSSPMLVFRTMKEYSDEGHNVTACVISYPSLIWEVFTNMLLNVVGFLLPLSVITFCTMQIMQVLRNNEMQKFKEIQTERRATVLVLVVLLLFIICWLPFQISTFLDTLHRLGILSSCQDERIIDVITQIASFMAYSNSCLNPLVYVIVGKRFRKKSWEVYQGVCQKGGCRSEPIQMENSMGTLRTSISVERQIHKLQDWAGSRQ

By AC50 is commonly meant the midpoint of the concentration-response curve, whichever way the signal moves.
Further: assay procedure not described here.

Chain of Sodium-dependent noradrenaline transporter (P23975 whole entry): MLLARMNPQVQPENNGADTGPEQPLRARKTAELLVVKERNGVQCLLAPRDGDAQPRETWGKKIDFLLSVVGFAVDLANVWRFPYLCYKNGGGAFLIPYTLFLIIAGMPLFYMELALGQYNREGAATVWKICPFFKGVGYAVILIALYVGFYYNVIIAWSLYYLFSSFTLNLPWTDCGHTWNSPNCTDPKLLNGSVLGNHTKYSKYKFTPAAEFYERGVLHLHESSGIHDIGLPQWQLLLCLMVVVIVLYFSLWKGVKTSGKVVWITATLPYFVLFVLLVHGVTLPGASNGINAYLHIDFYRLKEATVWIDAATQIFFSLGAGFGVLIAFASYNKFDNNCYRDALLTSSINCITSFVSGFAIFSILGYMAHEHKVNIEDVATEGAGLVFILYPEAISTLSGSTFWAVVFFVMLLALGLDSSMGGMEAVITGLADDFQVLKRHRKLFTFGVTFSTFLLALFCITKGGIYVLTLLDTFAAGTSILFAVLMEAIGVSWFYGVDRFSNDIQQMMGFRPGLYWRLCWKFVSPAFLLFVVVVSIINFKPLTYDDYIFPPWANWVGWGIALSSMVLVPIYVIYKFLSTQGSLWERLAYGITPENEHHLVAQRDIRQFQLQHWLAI
Chain of Histamine H3 receptor (Q9Y5N1 whole entry): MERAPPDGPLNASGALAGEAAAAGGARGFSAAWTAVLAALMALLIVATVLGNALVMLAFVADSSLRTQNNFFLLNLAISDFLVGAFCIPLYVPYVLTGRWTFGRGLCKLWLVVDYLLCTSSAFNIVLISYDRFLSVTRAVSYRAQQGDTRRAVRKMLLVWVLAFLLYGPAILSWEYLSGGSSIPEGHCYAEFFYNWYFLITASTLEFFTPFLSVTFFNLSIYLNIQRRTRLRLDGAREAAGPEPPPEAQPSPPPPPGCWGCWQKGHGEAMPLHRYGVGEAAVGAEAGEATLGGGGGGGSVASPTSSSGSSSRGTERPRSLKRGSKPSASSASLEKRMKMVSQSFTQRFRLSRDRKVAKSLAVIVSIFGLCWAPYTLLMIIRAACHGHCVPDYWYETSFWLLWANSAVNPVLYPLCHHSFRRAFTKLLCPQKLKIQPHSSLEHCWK
Chain of Delta-type opioid receptor (P41143 whole entry): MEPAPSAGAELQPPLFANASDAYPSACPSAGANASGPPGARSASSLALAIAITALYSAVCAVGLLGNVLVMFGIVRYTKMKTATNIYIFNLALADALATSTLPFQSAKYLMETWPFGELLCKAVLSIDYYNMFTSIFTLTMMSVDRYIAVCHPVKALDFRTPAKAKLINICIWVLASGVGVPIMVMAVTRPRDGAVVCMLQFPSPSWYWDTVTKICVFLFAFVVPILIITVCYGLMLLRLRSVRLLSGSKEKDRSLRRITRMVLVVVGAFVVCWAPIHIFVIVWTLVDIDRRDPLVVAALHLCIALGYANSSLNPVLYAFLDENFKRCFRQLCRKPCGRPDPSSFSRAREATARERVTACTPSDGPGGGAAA
Chain of Mu-type opioid receptor (P35372 whole entry): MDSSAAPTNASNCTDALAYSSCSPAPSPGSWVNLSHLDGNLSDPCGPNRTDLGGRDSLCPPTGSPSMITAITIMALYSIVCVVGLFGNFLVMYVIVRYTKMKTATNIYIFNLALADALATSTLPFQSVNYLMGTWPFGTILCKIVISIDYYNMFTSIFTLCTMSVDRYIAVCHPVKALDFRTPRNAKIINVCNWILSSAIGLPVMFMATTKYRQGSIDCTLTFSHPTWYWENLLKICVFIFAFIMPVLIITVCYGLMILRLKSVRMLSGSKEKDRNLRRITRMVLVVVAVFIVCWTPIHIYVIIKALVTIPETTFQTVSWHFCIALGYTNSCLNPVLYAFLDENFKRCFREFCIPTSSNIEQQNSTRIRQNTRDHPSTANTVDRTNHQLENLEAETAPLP
Chain of Histamine H2 receptor (P25021 whole entry): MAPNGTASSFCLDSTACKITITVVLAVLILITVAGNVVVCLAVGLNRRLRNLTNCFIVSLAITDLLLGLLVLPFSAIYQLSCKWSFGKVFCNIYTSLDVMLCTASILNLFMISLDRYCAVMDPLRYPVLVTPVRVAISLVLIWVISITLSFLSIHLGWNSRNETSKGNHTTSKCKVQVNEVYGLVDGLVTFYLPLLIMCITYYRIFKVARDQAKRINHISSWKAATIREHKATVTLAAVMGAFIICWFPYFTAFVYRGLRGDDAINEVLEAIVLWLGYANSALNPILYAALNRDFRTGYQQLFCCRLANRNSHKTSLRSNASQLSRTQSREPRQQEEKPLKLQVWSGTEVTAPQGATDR

On to `CCOC(=O)C1=C(C)NC(C)=C(C(=O)OC)C1c1cccc(Cl)c1Cl` (stereo not given) [FELODIPINE], for which the AC50 was greater than 10 µM in [1]; greater than 10 µM at Mu-type opioid receptor; greater than 10 µM in assay [2]; greater than 30 µM in [3]; greater than 30 µM at Endothelin-1 receptor; greater than 10 µM on Histamine H3 receptor. Also, the half-maximal activity concentration (AC50) in assay [4] is greater than 10 µM; at Histamine H2 receptor, greater than 10 µM; in assay [5] it was greater than 10 µM; on B2 bradykinin receptor, greater than 30 µM.

For `CN1C(=O)CN=C(c2ccccc2F)c2cc([N+](=O)[O-])ccc21` [FLUNITRAZEPAM], the AC50 was greater than 30 µM in [1]; greater than 10 µM at Mu-type opioid receptor; greater than 10 µM in assay [2]; greater than 30 µM in assay [3]; greater than 30 µM on Endothelin-1 receptor; greater than 10 µM on Histamine H3 receptor. Besides, the AC50 in assay [4] is greater than 10 µM; on Histamine H2 receptor it was greater than 10 µM; in assay [5] it was greater than 10 µM; on B2 bradykinin receptor, greater than 30 µM.

For `CC1NCCOC1c1ccccc1` (stereo not given) [PHENMETRAZINE], the half-maximal activity concentration (AC50) in [1] was greater than 30 µM; at Mu-type opioid receptor, greater than 30 µM; in [2] it was greater than 30 µM; in assay [3], 14 µM; on Endothelin-1 receptor, greater than 30 µM; at Histamine H3 receptor, greater than 10 µM. In addition, the concentration at half-maximal activity (AC50) in assay [4] was greater than 10 µM; at Histamine H2 receptor it was greater than 10 µM; in assay [5] it was 11.4 µM; at B2 bradykinin receptor, greater than 30 µM.

For the molecule `CC(C)(N)Cc1ccccc1` [PHENTERMINE], the concentration at half-maximal activity (AC50) was greater than 30 µM in assay [1]; greater than 30 µM on Mu-type opioid receptor; greater than 30 µM in [2]; greater than 30 µM in assay [3]; greater than 30 µM at Endothelin-1 receptor; greater than 10 µM at Histamine H3 receptor. Also, the concentration at half-maximal activity (AC50) was greater than 10 µM in [4], greater than 10 µM at Histamine H2 receptor, 5.73 µM in assay [5] and greater than 30 µM at B2 bradykinin receptor.

The values above are taken from ChEMBL document CHEMBL5291721, “A preclinical secondary pharmacology resource illuminates target-adverse drug reaction associations of marketed drugs” (Nat Commun, 2023).
